Test results published in PMC7155171, “Probing the Open Global Health Chemical Diversity Library for Multistage-Active Starting Points for Next-Generation Antimalarials” (ACS Infectious Diseases, 2020).
Where two headings read alike, the source gives them in different places.

What was measured:
[1] = system: P. falciparum Dd2 (PfLuc) line expressing firefly luciferase, asexual blood stage; assay: microbe, parasite or virus in culture; type: cell-based, Plasmodium falciparum; conditions: Plasmodium falciparum
[2] = system: P. falciparum Dd2; assay: SYBR green I asexual blood stage proliferation assay (96 h); type: cell-based, Plasmodium falciparum; conditions: Plasmodium falciparum, DD2, Sybr Green I, 11-pt dose response, 96hr; for IC50: read-out: CDD P. falciparum Sybr Green I ABS 11-pt Reconfirmation Dose Response (96hr): IC50; for Emax: read-out: CDD P. falciparum Sybr Green I ABS 11-pt Reconfirmation Dose Response (96hr): Maximum inhibition (%)
[3] = HepG2 cytotoxicity screening (CellTiter-Glo); conditions: human, uninfected HepG2-A16-CD81 (EGFP) hepatocytes
[4] = DD2, read-out: CDD P. falciparum Luciferase ABS 11-pt Reconfirmation Dose Response (48hr): IC50 (μM), 11-pt dose response, 48hr
[5] = DD2, 8-pt dose response, 96hr, read-out: CDD P. falciparum Luciferase ABS 8-pt Reconfirmation Dose Response (96hr): IC50
[6] = DD2, 8-pt dose response, 96hr, read-out: CDD P. falciparum Luciferase ABS 8-pt Reconfirmation Dose Response (96hr): Maximum inhibition (%)
[7] = DD2, 11-pt dose response, 48hr, read-out: CDD P. falciparum Luciferase ABS 11-pt Reconfirmation Dose Response (48hr): Maximum inhibition (%)
[8] = DD2, 11-pt dose response, 96hr, read-out: CDD P. falciparum Luciferase ABS 11-pt Reconfirmation Dose Response (96hr): IC50
[9] = DD2, 11-pt dose response, 96hr, read-out: CDD P. falciparum Luciferase ABS 11-pt Reconfirmation Dose Response (96hr): Maximum inhibition (%)

CC(O)CN1CCC(CNCc2cccc(Br)c2)CC1 (stereo not drawn) [DDD01304344]
IC50 [1, 4]: 3.63 µM
IC50 [1, 5]: 0.58 µM
Emax [1, 6]: 91.2%
Emax [1, 7]: 92.1%
IC50 [1, 8]: 1.64 µM
Emax [1, 9]: 98.2%
IC50 [2]: 2060 nM
Emax [2]: 93.8%

CC(C)c1nn(C)c(Cl)c1CNCC(O)c1cccc(F)c1 (stereo not drawn) [DDD01304823]
IC50 [1, 4]: 3.48 µM
IC50 [1, 5]: 0.58 µM
Emax [1, 6]: 92.1%
Emax [1, 7]: 89.6%
IC50 [1, 8]: 1.39 µM
Emax [1, 9]: 98.7%
IC50 [2]: 3660 nM
Emax [2]: 92.5%

CC(C)NC(=O)CNC(=O)C12CCC(=O)N1c1cc(Cl)ccc1S2 (stereo not drawn) [UCSD-0589377]
inhibition at 2 µM [3]: 3.84%

c1nc(N2CCCC(Cn3cncn3)C2)c2sccc2n1 (stereo not drawn) [UCSD-0620442]
inhibition at 2 µM [3]: 1.85%

N#Cc1nc(COc2ccc3c(c2)OCO3)oc1NC1CCCCC1 [UCSD-0630877]
inhibition at 2 µM [3]: 1.44%

Cc1nc(C)c(CN2CCOC[C@H](Oc3ccccc3)C2)s1 [UCSD-0784893]
inhibition at 2 µM [3]: 25.2%

Cc1cnc2c(c1NCc1cccnc1)c(=O)n(C)c(=O)n2C [UCSD-0787013]
inhibition at 2 µM [3]: 5.36%

CCN1C[C@@H]2[C@@H](OC)CCN(C(=O)c3cc(C)nn3CC)[C@@H]2C1 [UCSD-0791117]
inhibition at 2 µM [3]: -3.65%

CCS(=O)(=O)NCC1OCCc2cn(CC3CCOCC3)nc21 (stereo not drawn) [UCSD-0791354]
inhibition at 2 µM [3]: -4.05%

Cn1cnnc1S(=O)(=O)C1CCN(S(=O)(=O)c2ccc(F)c(Cl)c2)CC1 [UCSD-0795178]
inhibition at 2 µM [3]: 2.47%

CCn1nc(C)c2c1cnn2CCNS(=O)(=O)c1cccs1 [UCSD-0797219]
inhibition at 2 µM [3]: -1.63%

CCCNc1cc(-c2c[nH]nc2C2CCN(C(=O)C3CCC3)C2)ccn1 (stereo not drawn) [UCSD-0798526]
inhibition at 2 µM [3]: 83.5%

CCc1nnc2n1CCN(c1nc(C)cc(N(C)C)n1)C2 [UCSD-0803797]
inhibition at 2 µM [3]: 5.32%

CNC(=O)c1cccnc1NCc1ccc(Cn2ccnc2)cc1 [UCSD-0807977]
inhibition at 2 µM [3]: 73.6%

COc1cccc(CN2CCCC2c2ccc[nH]2)c1 (stereo not drawn) [UCSD-0808841]
inhibition at 2 µM [3]: -1.63%

O=C(c1cnc(OCC(F)(F)F)c(Cl)c1)N1CCc2ccc(O)cc2C1 [UCSD-0809130]
inhibition at 2 µM [3]: -5.64%

COCCCC(=O)Nc1cc(Cl)c(Cl)cn1 [UCSD-0809266]
inhibition at 2 µM [3]: 59.5%

Cc1cc(C)c(CCNC(=O)CN2CCCN(C(N)=O)CC2)c(C)c1 [UCSD-0809576]
inhibition at 2 µM [3]: -4.31%

CC(C)(C)n1ncc2c1CCCC2NCc1ccc2c(c1)CCO2 (stereo not drawn) [UCSD-0811334]
inhibition at 2 µM [3]: 2.05%
